These results are taken from patent US12383498B2, “Amlodipine formulations” (Azurity Pharmaceuticals, Inc., priority 2018, dated 2025).

Structures are written as SMILES.

A short description of data set [1]: Amlodipine content in supernatant of amlodipine salt batches (0.45 micron filtration, HPLC). Particulars: batches prepared by mixing; ~10-fold molar salt forming agent; polysorbate 80 in water. The class given is physicochemical. On the procedure:
Amlodipine salts were prepared according to the formulas in Table 1 and Table 2. The formulations in Table 1 were prepared by adding purified water to a glass container containing a magnetic stir-bar and mixing with an external magnetic stir-plate. The polysorbate 80 was added and allowed to dissolve with mixing for a minimum of 10 minutes. Amlodipine besylate was then added and dispersed in the solution with mixing for a minimum of 10 minutes. The salt forming agent was then added to the suspension and the resulting suspension was mixed for an additional 30 minutes. The amount of the added salt forming agent was approximately 10-fold the amount of amlodipine on a mole basis. A control formulation was prepared to provide a solubility value for amlodipine besylate.
The formulations in Table 2 were prepared by adding purified water to a glass container positioned in an ultrasonic bath. Mixing was initiated with an overhead mixer and impeller. The polysorbate 80 was added and allowed to dissolve with mixing for a minimum of 10 minutes. Amlodipine besylate was then added and dispersed in the solution with mixing for a minimum of 10 minutes. […]
An aliquot of each suspension was filtered through a 0.45 micron nylon filter and the supernatant analyzed by an HPLC method for amlodipine content. […] Detection was by UV absorbance at 237 nm.

Data set [2] can be described thus: Soluble amlodipine in isolated solids (purified water, pH 5.3, tumbled 66 hours, HPLC). The class given is physicochemical. Particulars: pH 5.3, aqueous buffer, thermodynamic from solid. On the procedure: Batches 1A-1F had different amlodipine content in the supernatants than the amlodipine besylate control indicating formation of new salt forms. […] Aliquots of each solid were weighed into 15 mL polypropylene centrifuge tubes in duplicate except for batch 1A which was a single determination. Purified water was added to each tube and the pH of the resulting suspension adjusted to 5.3 with anhydrous citric acid or anhydrous sodium citrate powder as needed. A control was also prepared in duplicate containing only purified water and amlodipine besylate at pH 5.3. The tubes were capped, covered in foil to block light, and allowed to tumble end-over-end at ambient temperature for 66 hours. The suspensions were then filtered through 0.45 micron nylon filters and the resulting filtrates analyzed by HPLC for amlodipine content.

By solubility is commonly meant the dissolved amount per volume that the medium holds. The low end stands for little dissolved substance, the high end for much dissolved substance.

On to `CCOC(=O)C1=C(COCCN)NC(C)=C(C(=O)OC)C1c1ccccc1Cl` (stereo not drawn) [Control, Amlodipine besylate], for which, in data set [1], the “Amlodipine content in supernatant” value turned out to be 4.80 mg/mL. Besides, the solubility at 66 h came out at 1080 µg/mL in data set [2] (Tube 1, pH adjusted to 5.3, ambient temperature) and 1080 µg/mL in data set [2] (Tube 2, pH adjusted to 5.3, ambient temperature).
